Values of other authors as cited in patent US12091408B2, “Store overload-induced calcium release inhibitors and methods for producing and using the same” (UTI Limited Partnership, priority 2013, dated 2024).

How the values were obtained:
β-adrenergic receptor = details: previously shown by the inventors; cited from earlier work
[1] = system: ventricular arrhythmias and sudden death; details: mice, reported; via enhanced FKBP12.6 binding to RyR2; cited from earlier work

Row | SMILES | β-blockade (order of magnitude) (β-adrenergic receptor) | suppression of ventricular arrhythmias and sudden death [1]
1 | COc1ccccc1OCCNCC(O)COc1cccc2[nH]c3ccccc3c12 (stereo not drawn) [Compound 1, carvedilol] | nanomolar | 
2 | COc1ccc2c(c1)CN(C)CCS2 [Compound 99, S107] |  | suppress ventricular arrhythmias and sudden death in mice
3 | COc1ccc2c(c1)CN(C(=O)CCN1CCC(Cc3ccccc3)CC1)CCS2.Cl [Compound 102, JTV519] |  | suppress ventricular arrhythmias and sudden death in mice
